Our source for the IC50 values is patent publication US9040530B2, “1,2,4-triazine-6-carboxamide kinase inhibitors” (Portola Pharmaceuticals, Inc., priority 2012, dated 2015).

Where only a bound is given, the exact number is not on record here.

This test addresses T1, full length active recombinant SYK enzyme (Homo sapiens, UniProt P43405).
T1 construct: full length active recombinant SYK enzyme (Millipore, Calif.); purchased Millipore
In words: Inhibition of Syk tyrosine phosphorylation activity (LANCE TR-FRET kinase assay). In kind it is biochemical. The note with it: 1 nM active SYK enzyme, 550 nM SYK-substrate, 100 μM ATP, 1 hour at room temperature.
What is called IC50 is the point on the concentration scale where inhibition reaches its midpoint. `NC(=O)c1nnc(N[C@@H]2CCOC[C@@H]2N)nc1Nc1ccc(-c2ncco2)cc1` [Example 253, 3-(((3R,4R)-3-aminotetrahydro-2H-pyran-4-yl)amino)-5-((4-(oxazol-2-yl)phenyl)amino)-1,2,4-triazine-6-carboxamide]: the IC50 lay in the range of 0.01 to 0.1 µM. Turning to `Cn1ccc2cc(Nc3nc(N[C@@H]4CCCC[C@@H]4N)nnc3C(N)=O)ccc21` [Example 118, 3-(((1R,2S)-2-aminocyclohexyl)amino)-5-((1-methyl-1H-indol-5-yl)amino)-1,2,4-triazine-6-carboxamide], the half-inhibitory concentration (IC50) is 0.001 to 0.01 µM. With `CC[C@@H](Nc1nnc(C(N)=O)c(Nc2cnc3ccccc3c2)n1)C(N)=O` [Example 59, (R)-3-((1-amino-1-oxobutan-2-yl)amino)-5-(quinolin-3-ylamino)-1,2,4-triazine-6-carboxamide], the IC50 was 0.01 to 0.1 µM.

With `CC[C@@H](Nc1nnc(C(N)=O)c(Nc2cccc(-n3nccn3)c2)n1)C(N)=O` [Example 86, (R)-5-((3-(2H-1,2,3-triazol-2-yl)phenyl)amino)-3-((1-amino-1-oxobutan-2-yl)amino)-1,2,4-triazine-6-carboxamide], the IC50 fell in the range of 0.1 to 1 µM. The figure for `NC(=O)c1nnc(N[C@@H]2CCCC[C@@H]2N)nc1Nc1ccc(N2CCOCC2=O)cc1` [Example 34, 3-(((1R,2S)-2-aminocyclohexyl)amino)-5-((4-(3-oxomorpholino)phenyl)amino)-1,2,4-triazine-6-carboxamide] is 0.1 to 1 µM; for `CC[C@@H](Nc1nnc(C(N)=O)c(Nc2ccc3c(c2)c(C#N)cn3C)n1)C(N)=O` [Example 183, (R)-3-((1-amino-1-oxobutan-2-yl)amino)-5-((3-cyano-1-methyl-1H-indol-5-yl)amino)-1,2,4-triazine-6-carboxamide] it is < 0.001 µM. In the case of `CC(C)C[C@@H](Nc1nnc(C(N)=O)c(Nc2cccc3c2ccn3C)n1)C(N)=O` [Example 88, (R)-3-((1-amino-4-methyl-1-oxopentan-2-yl)amino)-5-((1-methyl-1H-indol-4-yl)amino)-1,2,4-triazine-6-carboxamide], the IC50 is 0.001 to 0.01 µM. In the case of `CC[C@@H](Nc1nnc(C(N)=O)c(Nc2ccc(C(F)(F)F)cc2)n1)C(N)=O` [Example 169, (R)-3-((1-amino-1-oxobutan-2-yl)amino)-5-((4-(trifluoromethyl)phenyl)amino)-1,2,4-triazine-6-carboxamide], the IC50 fell in the range of 0.01 to 0.1 µM.

`Cn1ccc2c(Nc3nc(N[C@@H]4CCNC4)nnc3C(N)=O)cccc21` [Example 90, (R)-5-((1-methyl-1H-indol-4-yl)amino)-3-(pyrrolidin-3-ylamino)-1,2,4-triazine-6-carboxamide]: the half-inhibitory concentration (IC50) was in the range of 0.001 to 0.01 µM. In the case of `NC(=O)c1nnc(N[C@@H]2CCCC(F)(F)[C@@H]2N)nc1Nc1ccc2scnc2c1` [Example 245, 3-(((1R,2R)-2-amino-3,3-difluorocyclohexyl)amino)-5-(benzo[d]thiazol-5-ylamino)-1,2,4-triazine-6-carboxamide] it was 0.01 to 0.1 µM; in that of `CC[C@@H](Nc1nnc(C(N)=O)c(Nc2ccc3ccn(C)c3c2)n1)C(N)=O` [Example 163, (R)-3-((1-amino-1-oxobutan-2-yl)amino)-5-((1-methyl-1H-indol-6-yl)amino)-1,2,4-triazine-6-carboxamide], 0.01 to 0.1 µM.

Regarding `NC(=O)c1nnc(N[C@@H]2CCCC(F)(F)[C@@H]2N)nc1Nc1csc2ncccc12` [Example 38, 3-(((1R,2R)-2-amino-3,3-difluorocyclohexyl)amino)-5-(thieno[2,3-b]pyridin-3-ylamino)-1,2,4-triazine-6-carboxamide], the IC50 lay in the range of 0.01 to 0.1 µM. Turning to `Cc1ccc(Nc2nc(N[C@@H]3CCOC[C@@H]3N)nnc2C(N)=O)cc1Cl` [Example 225, 3-(((3R,4R)-3-aminotetrahydro-2H-pyran-4-yl)amino)-5-((3-chloro-4-methylphenyl)amino)-1,2,4-triazine-6-carboxamide], the 50% inhibitory concentration (IC50) is 0.001 to 0.01 µM. Turning to `NC(=O)c1nnc(N[C@@H]2CCCC[C@@H]2N)nc1Nc1cccc(C(F)(F)F)c1` [Example 170, 3-(((1R,2S)-2-aminocyclohexyl)amino)-5-((3-(trifluoromethyl)phenyl)amino)-1,2,4-triazine-6-carboxamide], the IC50 was in the range of 0.001 to 0.01 µM. Regarding `N#Cc1ccc(Nc2nc(N[C@@H]3CCCC[C@@H]3N)nnc2C(N)=O)cc1F` [Example 116, 3-(((1R,2S)-2-aminocyclohexyl)amino)-5-((4-cyano-3-fluorophenyl)amino)-1,2,4-triazine-6-carboxamide], the concentration for half-maximal inhibition (IC50) is 0.01 to 0.1 µM. With `Cc1ccc(Nc2nc(N[C@H](CC3CC3)C(N)=O)nnc2C(N)=O)cc1` [Example 226, (R)-3-((1-amino-3-cyclopropyl-1-oxopropan-2-yl)amino)-5-(p-tolylamino)-1,2,4-triazine-6-carboxamide], the concentration for half-maximal inhibition (IC50) fell in the range of 0.01 to 0.1 µM.

In the case of `Cn1ncc2c(Nc3nc(N[C@@H]4CCCC(F)(F)[C@@H]4N)nnc3C(N)=O)cccc21` [Example 117, 3-(((1R,2R)-2-amino-3,3-difluorocyclohexyl)amino)-5-((1-methyl-1H-indazol-4-yl)amino)-1,2,4-triazine-6-carboxamide], the IC50 lay in the range of 0.01 to 0.1 µM. Turning to `CC[C@@H](Nc1nnc(C(N)=O)c(Nc2ccc3cnn(C)c3c2)n1)C(N)=O` [Example 180, (R)-3-((1-amino-1-oxobutan-2-yl)amino)-5-((1-methyl-1H-indazol-6-yl)amino)-1,2,4-triazine-6-carboxamide], the half-maximal inhibitory concentration (IC50) lay in the range of 0.001 to 0.01 µM. Consider `NC(=O)c1nnc(N[C@@H]2CCCC[C@@H]2N)nc1Nc1ccc2c(ccc[n+]2[O-])c1` [Example 48, 6-((3-(((1R,2S)-2-aminocyclohexyl)amino)-6-carbamoyl-1,2,4-triazin-5-yl)amino)quinoline 1-oxide], for which the IC50 fell in the range of 0.01 to 0.1 µM.
